Measured values as given in patent US20050197350A1, “Novel quinoline, tetrahydroquinazoline, and pyrimidine derivatives and methods of treatment related to the use thereof” (TAISHO PHARMACEUTICAL CO., LTD., priority 2003, published 2005).

What follows are compounds tested on MCH receptors (assay: MCH receptor activity class (method not given)). Details: MCH receptor; class by percent of control at 10^-7 M or IC50.

Compound	class
CN(C)c1cc(N[C@H]2CC[C@@H](NC(=O)COc3ccccc3)CC2)nc2ccccc12 [compound 112, N-(cis-4-{[4-(dimethylamino)quinolin-2-yl]amino}cyclohexyl)-2-phenoxyacetamide]	1 (Class 1: The value of percent of control at 10^−7 M was less than 40% or the value of IC50 was less than 50 nM.)
CN(C)c1cc(N[C@H]2CC[C@@H](NC(=O)COc3ccccc3[N+](=O)[O-])CC2)nc2ccccc12 [compound 113]	3 (Class 3 The value of percent of control at 10^−7 M was more than 60% or the value of IC50 was more than 200 nM.)
CN(C)c1cc(N[C@H]2CC[C@@H](NC(=O)c3cnc4ccccc4n3)CC2)nc2ccccc12 [compound 114, N-(cis-4-{[4-(dimethylamino)quinolin-2-yl]amino}cyclohexyl)quinoxaline-2-carboxamide]	2 (Class 2: The value of percent of control at 10^−7 M was from 40% to 60% or the value of IC′50 was from 50 nM to 200 nM.)
COc1cc(C(=O)N[C@H]2CC[C@@H](Nc3cc(N(C)C)c4ccccc4n3)CC2)cc(OC)c1OC [compound 115]	3 (Class 3 The value of percent of control at 10^−7 M was more than 60% or the value of IC50 was more than 200 nM.)
CN(C)c1cc(N[C@H]2CC[C@@H](NC(=O)c3cccc(C(F)(F)F)c3)CC2)nc2ccccc12 [compound 116]	3 (Class 3 The value of percent of control at 10^−7 M was more than 60% or the value of IC50 was more than 200 nM.)
CN(C)c1cc(N[C@H]2CC[C@@H](NC(=O)c3ccc(C(F)(F)F)cc3)CC2)nc2ccccc12 [compound 117]	3 (Class 3 The value of percent of control at 10^−7 M was more than 60% or the value of IC50 was more than 200 nM.)
CN(C)c1cc(N[C@H]2CC[C@@H](NC(=O)c3ccccc3OC(F)(F)F)CC2)nc2ccccc12 [compound 118]	3 (Class 3 The value of percent of control at 10^−7 M was more than 60% or the value of IC50 was more than 200 nM.)
COc1cc(COC(=O)N[C@H]2CC[C@@H](Nc3cc(N(C)C)c4ccccc4n3)CC2)c([N+](=O)[O-])cc1OC [compound 119]	3 (Class 3 The value of percent of control at 10^−7 M was more than 60% or the value of IC50 was more than 200 nM.)
CN(C)c1cc(N[C@H]2CC[C@@H](NC(=O)CCCOc3ccccc3)CC2)nc2ccccc12 [compound 120]	3 (Class 3 The value of percent of control at 10^−7 M was more than 60% or the value of IC50 was more than 200 nM.)
COc1ccc(Br)c(C(=O)N[C@H]2CC[C@@H](Nc3cc(N(C)C)c4ccccc4n3)CC2)c1 [compound 121]	3 (Class 3 The value of percent of control at 10^−7 M was more than 60% or the value of IC50 was more than 200 nM.)
CN(C)c1cc(N[C@H]2CC[C@@H](NC(=O)COc3c(F)c(F)c(F)c(F)c3F)CC2)nc2ccccc12 [compound 122]	3 (Class 3 The value of percent of control at 10^−7 M was more than 60% or the value of IC50 was more than 200 nM.)
COc1ccc(CC(=O)N[C@H]2CC[C@@H](Nc3cc(N(C)C)c4ccccc4n3)CC2)cc1OC [compound 123]	3 (Class 3 The value of percent of control at 10^−7 M was more than 60% or the value of IC50 was more than 200 nM.)
CN(C)c1cc(N[C@H]2CC[C@@H](NC(=O)c3ccc(F)c(F)c3F)CC2)nc2ccccc12 [compound 124]	3 (Class 3 The value of percent of control at 10^−7 M was more than 60% or the value of IC50 was more than 200 nM.)
CN(C)c1cc(N[C@H]2CC[C@@H](NC(=O)C3CCCC3)CC2)nc2ccccc12 [compound 125]	3 (Class 3 The value of percent of control at 10^−7 M was more than 60% or the value of IC50 was more than 200 nM.)
CN(C)c1cc(N[C@H]2CC[C@@H](NC(=O)c3ccc(F)cc3F)CC2)nc2ccccc12 [compound 126, N-(cis-4-{[4-(dimethylamino)quinolin-2-yl]amino}cyclohexyl)-2,4-difluorobenzamide]	3 (Class 3 The value of percent of control at 10^−7 M was more than 60% or the value of IC50 was more than 200 nM.)
CN(C)c1cc(N[C@H]2CC[C@@H](NC(=O)CCc3ccccc3)CC2)nc2ccccc12 [compound 127]	3 (Class 3 The value of percent of control at 10^−7 M was more than 60% or the value of IC50 was more than 200 nM.)
CN(C)c1cc(N[C@H]2CC[C@@H](NC(=O)c3cc(F)c(F)c(F)c3F)CC2)nc2ccccc12 [compound 128]	3 (Class 3 The value of percent of control at 10^−7 M was more than 60% or the value of IC50 was more than 200 nM.)
CCOc1ccc2ccccc2c1C(=O)N[C@H]1CC[C@@H](Nc2cc(N(C)C)c3ccccc3n2)CC1 [compound 129]	3 (Class 3 The value of percent of control at 10^−7 M was more than 60% or the value of IC50 was more than 200 nM.)
CN(C)c1cc(N[C@H]2CC[C@@H](NC(=O)c3c(F)c(F)c(F)c(F)c3F)CC2)nc2ccccc12 [compound 130]	3 (Class 3 The value of percent of control at 10^−7 M was more than 60% or the value of IC50 was more than 200 nM.)

Compound	class
CN(C)c1cc(N[C@H]2CC[C@@H](NC(=O)c3ccc(SC(F)(F)F)cc3)CC2)nc2ccccc12 [compound 131]	3 (Class 3 The value of percent of control at 10^−7 M was more than 60% or the value of IC50 was more than 200 nM.)
CN(C)c1cc(N[C@H]2CC[C@@H](NC(=O)c3sc(Cl)c(Cl)c3Cl)CC2)nc2ccccc12 [compound 132]	3 (Class 3 The value of percent of control at 10^−7 M was more than 60% or the value of IC50 was more than 200 nM.)
CN(C)c1cc(N[C@H]2CC[C@@H](NC(=O)COc3cccc(Cl)c3)CC2)nc2ccccc12 [compound 133]	1 (Class 1: The value of percent of control at 10^−7 M was less than 40% or the value of IC50 was less than 50 nM.)
Cc1onc(-c2c(Cl)cccc2Cl)c1C(=O)N[C@H]1CC[C@@H](Nc2cc(N(C)C)c3ccccc3n2)CC1 [compound 134]	1 (Class 1: The value of percent of control at 10^−7 M was less than 40% or the value of IC50 was less than 50 nM.)
CN(C)c1cc(N[C@H]2CC[C@@H](NC(=O)c3cccnc3Oc3ccccc3)CC2)nc2ccccc12 [compound 135, N-(cis-4-{[4-(dimethylamino)quinolin-2-yl]amino}cyclohexyl)-2-phenoxynicotinamide]	1 (Class 1: The value of percent of control at 10^−7 M was less than 40% or the value of IC50 was less than 50 nM.)
CN(C)c1cc(N[C@H]2CC[C@@H](NC(=O)c3cccnc3Sc3ccccc3)CC2)nc2ccccc12 [compound 136]	3 (Class 3 The value of percent of control at 10^−7 M was more than 60% or the value of IC50 was more than 200 nM.)
Cc1ccc(Oc2ncccc2C(=O)N[C@H]2CC[C@@H](Nc3cc(N(C)C)c4ccccc4n3)CC2)cc1 [compound 137, N-(cis-4-{[4-(dimethylamino)quinolin-2-yl]amino}cyclohexyl)-2-(4-methylphenoxy)nicotinamide]	1 (Class 1: The value of percent of control at 10^−7 M was less than 40% or the value of IC50 was less than 50 nM.)
CCCN(CCC)S(=O)(=O)c1ccc(C(=O)N[C@H]2CC[C@@H](Nc3cc(N(C)C)c4ccccc4n3)CC2)cc1 [compound 138]	3 (Class 3 The value of percent of control at 10^−7 M was more than 60% or the value of IC50 was more than 200 nM.)
CN(C)c1cc(N[C@H]2CC[C@@H](NC(=O)C(C)(C)Oc3ccc(Cl)cc3)CC2)nc2ccccc12 [compound 139]	3 (Class 3 The value of percent of control at 10^−7 M was more than 60% or the value of IC50 was more than 200 nM.)
CN(C)c1cc(N[C@H]2CC[C@@H](NC(=O)c3cc(-c4ccc(Cl)cc4)oc3C(F)(F)F)CC2)nc2ccccc12 [compound 140]	3 (Class 3 The value of percent of control at 10^−7 M was more than 60% or the value of IC50 was more than 200 nM.)
CN(C)c1cc(N[C@H]2CC[C@@H](NC(=O)c3csc(-c4ccc5c(c4)CCO5)n3)CC2)nc2ccccc12 [compound 141]	3 (Class 3 The value of percent of control at 10^−7 M was more than 60% or the value of IC50 was more than 200 nM.)
CN(C)c1cc(N[C@H]2CC[C@@H](NC(=O)c3cc(C(C)(C)C)nn3Cc3ccc(Cl)cc3Cl)CC2)nc2ccccc12 [compound 142]	3 (Class 3 The value of percent of control at 10^−7 M was more than 60% or the value of IC50 was more than 200 nM.)
CN(C)c1cc(N[C@H]2CC[C@@H](NC(=O)C3=Cc4cc(Cl)ccc4OC3)CC2)nc2ccccc12 [compound 143]	3 (Class 3 The value of percent of control at 10^−7 M was more than 60% or the value of IC50 was more than 200 nM.)
CN(C)c1cc(N[C@H]2CC[C@@H](NC(=O)c3ccc(OC(F)(F)F)c(Cl)c3)CC2)nc2ccccc12 [compound 144]	3 (Class 3 The value of percent of control at 10^−7 M was more than 60% or the value of IC50 was more than 200 nM.)
Cc1cc(=O)oc2c(OCC(=O)N[C@H]3CC[C@@H](Nc4cc(N(C)C)c5ccccc5n4)CC3)cccc12 [compound 145]	3 (Class 3 The value of percent of control at 10^−7 M was more than 60% or the value of IC50 was more than 200 nM.)
CN(C)c1cc(N[C@H]2CC[C@@H](NC(=O)c3csc(-c4cccs4)n3)CC2)nc2ccccc12 [compound 146, N-(cis-4-{[4-(dimethylamino)quinolin-2-yl]amino}cyclohexyl)-2-(2-thienyl)-1,3-thiazole-4-carboxamide]	1 (Class 1: The value of percent of control at 10^−7 M was less than 40% or the value of IC50 was less than 50 nM.)
COc1cccc(C(=O)NC[C@H]2CC[C@@H](Nc3cc(N(C)C)c4ccccc4n3)CC2)c1 [compound 147, N-[(cis-4-{[4-(dimethylamino)quinolin-2-yl]amino}cyclohexyl)methyl]-3-methoxybenzamide]	3 (Class 3 The value of percent of control at 10^−7 M was more than 60% or the value of IC50 was more than 200 nM.)
CN(C)c1cc(N[C@H]2CC[C@@H](CNC(=O)c3cccc(Br)c3)CC2)nc2ccccc12 [compound 148]	3 (Class 3 The value of percent of control at 10^−7 M was more than 60% or the value of IC50 was more than 200 nM.)
CN(C)c1cc(N[C@H]2CC[C@@H](CNC(=O)c3ccc(Br)cc3)CC2)nc2ccccc12 [compound 149]	3 (Class 3 The value of percent of control at 10^−7 M was more than 60% or the value of IC50 was more than 200 nM.)
